Where two headings read alike, the source gives them in different places.
Legend:
[1] = target: T1, human RARα (Homo sapiens, UniProt P10276); experiment: RAR/RARE-luciferase reporter assay in HCT-116 cells; conditions: RARE-luciferase, versus all-trans retinoic acid
T1 sequence (P10276 1-462): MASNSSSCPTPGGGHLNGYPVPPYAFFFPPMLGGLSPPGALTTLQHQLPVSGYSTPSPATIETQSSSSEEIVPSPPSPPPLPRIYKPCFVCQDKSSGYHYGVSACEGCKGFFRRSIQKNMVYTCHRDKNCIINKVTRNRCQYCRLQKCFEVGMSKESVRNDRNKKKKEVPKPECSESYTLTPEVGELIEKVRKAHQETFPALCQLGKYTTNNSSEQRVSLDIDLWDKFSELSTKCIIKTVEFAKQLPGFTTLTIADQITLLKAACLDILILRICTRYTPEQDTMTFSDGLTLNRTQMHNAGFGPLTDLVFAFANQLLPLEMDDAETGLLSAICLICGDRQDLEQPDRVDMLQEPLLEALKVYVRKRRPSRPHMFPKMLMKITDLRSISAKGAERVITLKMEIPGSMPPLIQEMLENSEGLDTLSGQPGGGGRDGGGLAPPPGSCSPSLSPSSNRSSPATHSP

[2] = target: T2, human RXR (Homo sapiens, UniProt P19793); experiment: RXR mammalian two-hybrid; conditions: for RXR binding and homodimerization (luciferase output) compared to compound 1: 24 h; for RXR-mediated transcriptional activity: data in Figures 4 and 5 (M2H and RXRE assays)
T2 sequence (P19793 1-462) 1: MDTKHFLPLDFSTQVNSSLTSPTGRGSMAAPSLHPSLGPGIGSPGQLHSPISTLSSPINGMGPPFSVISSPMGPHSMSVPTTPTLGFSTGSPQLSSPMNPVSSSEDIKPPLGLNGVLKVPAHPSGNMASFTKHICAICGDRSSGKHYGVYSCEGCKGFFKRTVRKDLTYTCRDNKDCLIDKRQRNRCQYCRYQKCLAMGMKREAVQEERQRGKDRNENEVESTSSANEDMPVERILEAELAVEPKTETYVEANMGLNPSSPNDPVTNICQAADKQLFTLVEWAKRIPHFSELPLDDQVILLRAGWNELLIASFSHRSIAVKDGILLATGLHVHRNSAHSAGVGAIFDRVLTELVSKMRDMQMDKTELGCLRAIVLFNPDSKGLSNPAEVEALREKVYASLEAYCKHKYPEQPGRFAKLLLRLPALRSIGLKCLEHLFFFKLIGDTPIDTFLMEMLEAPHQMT
T2 sequence (P19793 1-462) 2: T2 sequence (P19793 1-462) 1

[3] = test system: VDR-RXR; conditions: for inhibition of VDR activity compared with compound 1: both assays (10^-6 M and 10^-7 M), ER6 VDRE
[4] = test system: HuT-78 (human T-cell lymphoma) cells; experiment: Caspase-Glo 3/7 apoptosis assay in CTCL cells; type: cell-based; conditions: 100 nM
[5] = target: T3, human RXRα (Homo sapiens, UniProt P19793); experiment: RXRE-luciferase reporter transcription assay in HCT-116 cells; type: cell-based; conditions: 25 nM and 100 nM (both assays), HCT-116, Figure 5A and B
T3 sequence (P19793 1-462): T2 sequence (P19793 1-462) 1

[6] = 100 nM analog + 1 nM 1,25D, Fig. 7A
[7] = 1,000 nM analog + 1 nM 1,25D, Fig. 7B
[8] = 100 nM analog + 1 nM 1,25D, Fig. 7C
[9] = 100 nM analog + 1 nM 1,25D, Fig. 7E
[10] = 1,000 nM analog + 1 nM 1,25D, Fig. 7F

Row | Molecule | RAR agonist activity compared to bexarotene [1] | RXR binding and homodimerization (luciferase output) compared to compound 1 ([2]; 25 nM, HCT-116, Figure 4A) | RXR binding and homodimerization (luciferase output) compared to compound 1 ([2]; 100 nM, HCT-116, Figure 4B) | RXR-mediated transcriptional activity [2] | ER6 VDRE-mediated activity versus 1,25D alone [3, 6] | ER6 VDRE-mediated activity versus 1,25D alone [3, 7] | apoptosis compared to ethanol vehicle control ([4]; 24 hours) | apoptosis compared to ethanol vehicle control ([4]; 48 hours) | inhibition of VDR activity compared with compound 1 [3] | DR3 VDRE-mediated activity versus 1,25D alone ([3]; 1,000 nM analog + 1 nM 1,25D, Fig. 7D) | DR3 VDRE-mediated activity versus 1,25D alone [3, 8] | CYP24 natural promoter 1,25D-VDR transactivation versus 1,25D alone [3, 9] | CYP24 natural promoter 1,25D-VDR transactivation versus 1,25D alone [3, 10] | RXRE-mediated transcriptional activity compared to compound 1 [5]
1 | Cc1cc2c(cc1-c1cc(/C=C/C(=O)O)ccc1O)C(C)(C)CCC2(C)C [Compound 11, (E)-3-(3-(1,2,3,4-tetrahydro-1,1,4,4,6-pentamethylnaphthalen-7-yl)-4-hydroxyphenyl)acrylic acid, reference compound] | slightly lower RAR-directed activity | greater activity than compound 1 | high activity compared with compound 1 | consistently more active | significantly lower | significantly lower |  |  |  |  |  |  |  | 
2 | Methyl 2-(1-(1,2,3,4-tetrahydro-1,1,4,4,6-pentamethylnaphthalen-7-yl)vinyl)pyridine-5-carboxylate [Compound 13] | greater RAR agonist activity |  |  |  |  | significantly lower | greater than the ethanol vehicle control | greater than the ethanol vehicle control | inhibited VDR activity less |  |  |  |  | 
3 | Cc1cc2c(cc1C1(c3ccc(C(=O)O)cn3)CC1)C(C)(C)CCC2(C)C [Compound 9, 6-[1-(3,5,5,8,8-Pentamethyl-5,6,7,8-tetrahydronaphthalen-2-yl)cyclopropyl]nicotinic Acid, reference compound] |  |  |  |  | significantly lower | significantly lower | greater than the ethanol vehicle control | greater than the ethanol vehicle control |  |  |  |  |  | 
4 | Cc1ccc(/C=C/C(=O)O)cc1-c1cc2c(cc1C)C(C)(C)CCC2(C)C [Compound 15, (E)-3-(3-(1,2,3,4-tetrahydro-1,1,4,4,6-pentamethylnaphthalen-7-yl)-4-methylphenyl)acrylic acid] | greater RAR agonist activity | greater activity than compound 1 | high activity compared with compound 1 | consistently more active | significantly lower | significantly lower |  |  |  | significantly higher |  |  |  | 
5 | Cc1cc2c(cc1-c1cc(/C=C/C(=O)O)ccc1C(F)(F)F)C(C)(C)CCC2(C)C [Compound 16, (E)-3-(4-(trifluoromethyl)-3-(1,2,3,4-tetrahydro-1,1,4,4,6-pentamethylnaphthalen-7-yl)phenyl)acrylic acid] | slightly lower RAR-directed activity |  |  | consistently lower RXR-mediated transcriptional activity |  | significantly lower | greater than the ethanol vehicle control |  |  |  |  |  |  | 
6 | Cc1cc2c(cc1C1(c3ncc(C(=O)O)cn3)CC1)C(C)(C)CCC2(C)C [Compound 14] | greater RAR agonist activity |  |  |  |  | significantly lower | greater than the ethanol vehicle control | greater than the ethanol vehicle control | inhibited VDR activity less |  |  |  |  | 
7 | Cc1cc2c(cc1-c1cccc(/C=C/C(=O)O)c1)C(C)(C)CCC2(C)C [Compound 12, (E)-3-(3-(1,2,3,4-tetrahydro-1,1,4,4,6-pentamethylnaphthalen-7-yl)phenyl)acrylic acid, reference compound] | slightly lower RAR-directed activity |  |  | consistently lower RXR-mediated transcriptional activity |  | significantly lower | greater than the ethanol vehicle control |  |  |  | significantly lower | significant inhibiton | significant inhibiton | 
8 | Cc1cc2c(cc1-c1cc(/C=C/C(=O)O)ccc1O)C(C)(C)C=CC2(C)C [Compound 18, (2E)-3-(3-(1,4-dihydro-1,1,4,4,6-pentamethylnaphthalen-7-yl)-4-hydroxyphenyl)acrylic acid] | approximately equal to bexarotene | approaching statistical significance |  | consistently more active |  | significantly lower | greater than the ethanol vehicle control | greater than the ethanol vehicle control |  |  |  | significant inhibiton | significant inhibiton | 
9 | C=C(c1ccc(C(=O)O)c(F)c1)c1cc2c(cc1C)C(C)(C)C=CC2(C)C [Compound 19, 2-Fluoro-4-(1-(1,4-dihydro-1,1,4,4,6-pentamethylnaphthalen-7-yl)vinyl)benzoic acid] | greater RAR agonist activity |  |  | consistently lower RXR-mediated transcriptional activity |  | significantly lower | greater than the ethanol vehicle control | greater than the ethanol vehicle control |  |  |  | significant inhibiton |  | 
10 | Cc1ccc(/C=C/C(=O)O)cc1-c1cc2c(cc1C)C(C)(C)C=CC2(C)C [Compound 17, (2E)-3-(3-(1,4-dihydro-1,1,4,4,6-pentamethylnaphthalen-7-yl)-4-methylphenyl)acrylic acid] | greater RAR agonist activity |  |  | consistently lower RXR-mediated transcriptional activity |  | significantly lower | greater than the ethanol vehicle control | greater than the ethanol vehicle control | inhibited VDR activity less |  | significantly lower |  |  | 
11 | C=C(c1ccc(C(=O)O)cc1)c1cc2c(cc1C)C(C)(C)C=CC2(C)C [Compound 10, 4-[1-(3,5,5,8,8-Pentamethyl-2–5,8-dihydronaphthyl)vinyl]benzoic Acid, reference compound] | greater RAR agonist activity |  |  |  |  |  | greater than the ethanol vehicle control |  | inhibited VDR activity less |  |  |  |  | transcriptional activity consistently above the compound 1 level
